Laboratory results reported in PMC5218480 (PLoS ONE, 2017).

Tested on: MV-4-11 cells
Assay: Gene expression microarray analysis (Affymetrix PrimeView) and GSEA
Type: cell-based, human
Design: RFU PODN (11730768_x_at) / Fold change /veh PODN (11730768_x_at) / RFU LINC00158 (11744669_a_at) / Fold change /veh LINC00158 (11744669_a_at) / RFU DUSP10 (11751237_a_at) / Fold change /veh DUSP10 (11751237_a_at) / RFU ID3 (11757404_x_at) / Fold change /veh ID3 (11757404_x_at) / RFU PLEKHG5 (11737974_s_at) / Fold change /veh PLEKHG5 (11737974_s_at) / RFU LRRC4B (11730491_at) / Fold change /veh LRRC4B (11730491_at) / RFU GIMAP4 (11747438_a_at) / Fold change /veh GIMAP4 (11747438_a_at) / RFU KRT8 (11758183_x_at) / Fold change /veh KRT8 (11758183_x_at) / RFU CNN1 (11734310_a_at) / Fold change /veh CNN1 (11734310_a_at) / RFU VPS37D (11726825_at) / Fold change /veh VPS37D (11726825_at) / RFU C10orf10 (11716522_x_at) / Fold change /veh C10orf10 (11716522_x_at) / RFU KIR2DL2 /// KIR2DL4 /// KIR2DL5A /// KIR2DL5B /// KIR2DS1 /// KIR2DS2 /// KIR2DS3 /// KIR2DS4 /// KIR3DL3 /// KIR3DL3 /// KIR3DS1 (11738374_at) / Fold change /veh KIR2DL2 /// KIR2DL4 /// KIR2DL5A /// KIR2DL5B /// KIR2DS1 /// KIR2DS2 /// KIR2DS3 /// KIR2DS4 /// KIR3DL3 /// KIR3DL3 /// KIR3DS1 (11738374_at) / RFU C1QL1 (11718748_at) / Fold change /veh C1QL1 (11718748_at) / RFU TMPRSS4 (11747572_a_at) / Fold change /veh TMPRSS4 (11747572_a_at) / RFU HAMP (11756126_x_at) / Fold change /veh HAMP (11756126_x_at) / RFU RNFT2 (11725882_a_at) / Fold change /veh RNFT2 (11725882_a_at) / RFU NR4A2 (11747474_a_at) / Fold change /veh NR4A2 (11747474_a_at) / RFU ABCC12 (11746883_a_at) / Fold change /veh ABCC12 (11746883_a_at) / RFU TMEM136 (11760407_x_at) / Fold change /veh TMEM136 (11760407_x_at) / RFU CLDN22 /// WWC2 (11732394_at) / Fold change /veh CLDN22 /// WWC2 (11732394_at) / RFU HLA-DPB1 (11760878_x_at) / Fold change /veh HLA-DPB1 (11760878_x_at) / RFU SPINT1 (11716480_a_at) / Fold change /veh SPINT1 (11716480_a_at) / RFU GAP43 (11754022_s_at) / Fold change /veh GAP43 (11754022_s_at) / RFU A4GNT (11735810_at) / Fold change /veh A4GNT (11735810_at) / RFU PRB3 (11715151_x_at) / Fold change /veh PRB3 (11715151_x_at) / RFU TUBB4B (11761932_at) / Fold change /veh TUBB4B (11761932_at) / RFU CAPN14 (11732068_a_at) / Fold change /veh CAPN14 (11732068_a_at) / RFU TMCC2 (11721928_a_at) / Fold change /veh TMCC2 (11721928_a_at) / RFU IRGQ (11745062_a_at) / Fold change /veh IRGQ (11745062_a_at) / RFU FAM174B (11720279_a_at) / Fold change /veh FAM174B (11720279_a_at) / RFU TMPRSS4 (11748680_a_at) / Fold change /veh TMPRSS4 (11748680_a_at) / RFU FAM212B (11763350_a_at) / Fold change /veh FAM212B (11763350_a_at) / RFU PLEKHG5 (11743358_a_at) / Fold change /veh PLEKHG5 (11743358_a_at) / RFU ZSCAN30 (11745921_a_at) / Fold change /veh ZSCAN30 (11745921_a_at) / RFU CMKLR1 (11741424_a_at) / Fold change /veh CMKLR1 (11741424_a_at) / RFU LOC101060620 /// MAPK8IP1 (11723275_at) / Fold change /veh LOC101060620 /// MAPK8IP1 (11723275_at) / RFU SPTSSB (11747773_x_at) / Fold change /veh SPTSSB (11747773_x_at) / RFU PRSS12 (11739890_at) / Fold change /veh PRSS12 (11739890_at) / RFU BIN1 (11741810_x_at) / Fold change /veh BIN1 (11741810_x_at) / RFU WNT11 (11732464_a_at) / Fold change /veh WNT11 (11732464_a_at) / RFU C10orf10 (11716521_a_at) / Fold change /veh C10orf10 (11716521_a_at) / RFU C5orf56 (11738089_at) / Fold change /veh C5orf56 (11738089_at) / RFU CYB561 (11721691_x_at) / Fold change /veh CYB561 (11721691_x_at) / RFU ANKRD19P (11752326_a_at) / Fold change /veh ANKRD19P (11752326_a_at) / RFU OR2T12 /// OR2T33 /// OR2T8 (11738714_s_at) / Fold change /veh OR2T12 /// OR2T33 /// OR2T8 (11738714_s_at) / RFU VCAN (11748164_a_at) / Fold change /veh VCAN (11748164_a_at) / RFU JSRP1 (11732532_at) / Fold change /veh JSRP1 (11732532_at) / RFU KRTAP10-11 (11738290_x_at) / Fold change /veh KRTAP10-11 (11738290_x_at) / RFU MYO3A (11730013_a_at) / Fold change /veh MYO3A (11730013_a_at) / RFU EBF3 (11725865_a_at) / Fold change /veh EBF3 (11725865_a_at) / RFU CAMK2N1 (11719241_x_at) / Fold change /veh CAMK2N1 (11719241_x_at) / RFU C5orf56 (11738088_a_at) / Fold change /veh C5orf56 (11738088_a_at) / RFU OLFML3 (11715873_a_at) / Fold change /veh OLFML3 (11715873_a_at) / RFU LOC100653217 /// NTM (11731650_a_at) / Fold change /veh LOC100653217 /// NTM (11731650_a_at) / RFU MAPK11 (11762145_a_at) / Fold change /veh MAPK11 (11762145_a_at) / RFU FIZ1 (11724087_x_at) / Fold change /veh FIZ1 (11724087_x_at) / RFU OASL (11726364_x_at) / Fold change /veh OASL (11726364_x_at) / RFU SOX15 (11748057_x_at) / Fold change /veh SOX15 (11748057_x_at) / RFU CD79A (11719716_a_at) / Fold change /veh CD79A (11719716_a_at) / RFU HIST1H1D (11736915_at) / Fold change /veh HIST1H1D (11736915_at) / RFU CASKIN2 (11723855_a_at) / Fold change /veh CASKIN2 (11723855_a_at) / RFU LOC730098 (11760151_x_at) / Fold change /veh LOC730098 (11760151_x_at) / RFU OR4N2 (11742367_at) / Fold change /veh OR4N2 (11742367_at) / RFU PRRT2 (11749266_a_at) / Fold change /veh PRRT2 (11749266_a_at) / RFU SNX32 (11753110_a_at) / Fold change /veh SNX32 (11753110_a_at) / RFU CDHR5 (11726645_a_at) / Fold change /veh CDHR5 (11726645_a_at) / RFU RCAN1 (11760418_a_at) / Fold change /veh RCAN1 (11760418_a_at) / RFU FAM167A (11723789_a_at) / Fold change /veh FAM167A (11723789_a_at) / RFU FAM26E (11764081_at) / Fold change /veh FAM26E (11764081_at) / RFU ISYNA1 (11749810_s_at) / Fold change /veh ISYNA1 (11749810_s_at) / RFU ACY1 (11761880_at) / Fold change /veh ACY1 (11761880_at) / RFU 11764098_at / Fold change /veh 11764098_at / RFU SAMD14 (11745864_x_at) / Fold change /veh SAMD14 (11745864_x_at) / RFU NPB (11741838_a_at) / Fold change /veh NPB (11741838_a_at) / RFU TMPRSS6 (11731388_a_at) / Fold change /veh TMPRSS6 (11731388_a_at) / RFU KRTAP10-2 (11738614_at) / Fold change /veh KRTAP10-2 (11738614_at) / RFU ARHGAP8 /// PRR5-ARHGAP8 (11727945_x_at) / Fold change /veh ARHGAP8 /// PRR5-ARHGAP8 (11727945_x_at) / RFU KRTAP5-7 /// NADSYN1 (11734609_at) / Fold change /veh KRTAP5-7 /// NADSYN1 (11734609_at) / RFU RASL12 (11751679_a_at) / Fold change /veh RASL12 (11751679_a_at) / RFU CDKN2B (11736163_a_at) / Fold change /veh CDKN2B (11736163_a_at) / RFU PRF1 (11729649_at) / Fold change /veh PRF1 (11729649_at) / RFU, ZNF638 /// ZNF638-IT1 / Fold change vs veh, ZNF638 /// ZNF638-IT1 / RFU, PANK3 / Fold change vs veh, PANK3 / RFU, SH3YL1 / Fold change vs veh, SH3YL1 / RFU, ZEB2 / Fold change vs veh, ZEB2 / RFU, NRIP1 / Fold change vs veh, NRIP1 / RFU, PTTG1IP / Fold change vs veh, PTTG1IP / RFU, CAPN2 / Fold change vs veh, CAPN2 / RFU, MED14 / Fold change vs veh, MED14 / RFU, SNORA58 / Fold change vs veh, SNORA58 / RFU, C1orf63 / Fold change vs veh, C1orf63 / RFU, LRRFIP1 / Fold change vs veh, LRRFIP1 / RFU, NDUFAF7 / Fold change vs veh, NDUFAF7 / RFU, SLC12A2 / Fold change vs veh, SLC12A2 / RFU, IBTK / Fold change vs veh, IBTK / RFU, ESF1 / Fold change vs veh, ESF1 / Fold change vs veh, TMEM50B / RFU, TAOK1 / Fold change vs veh, TAOK1 / RFU, ACBD3 / Fold change vs veh, ACBD3 / RFU, TMA16 / Fold change vs veh, TMA16 / RFU, RWDD3 / Fold change vs veh, RWDD3 / RFU, BCAT1 / Fold change vs veh, BCAT1 / RFU, EDEM3 / Fold change vs veh, EDEM3 / RFU, TMEM33 / Fold change vs veh, TMEM33 / RFU, WDR75 / Fold change vs veh, WDR75 / RFU, AHCTF1 / Fold change vs veh, AHCTF1 / RFU, TFRC / Fold change vs veh, TFRC / RFU, ZDHHC17 / Fold change vs veh, ZDHHC17 / RFU, NOM1 / Fold change vs veh, NOM1 / RFU, ARL8B / Fold change vs veh, ARL8B / RFU, ZBTB11 / Fold change vs veh, ZBTB11 / RFU, TAMM41 / Fold change vs veh, TAMM41 / RFU, KIAA1704 /// LOC100996395 / Fold change vs veh, KIAA1704 /// LOC100996395 / RFU, ING1 / Fold change vs veh, ING1 / RFU, TRMT61B / Fold change vs veh, TRMT61B / RFU, FUBP3 / Fold change vs veh, FUBP3 / RFU, TP53 / Fold change vs veh, TP53 / RFU, TNKS2 / Fold change vs veh, TNKS2 / RFU, ZFP14 / Fold change vs veh, ZFP14 / RFU, ACTR2 / Fold change vs veh, ACTR2 / RFU, PPP3R1 / Fold change vs veh, PPP3R1 / RFU, PIK3R1 / Fold change vs veh, PIK3R1 / RFU, HNRNPA1 / Fold change vs veh, HNRNPA1 / RFU, RNF170 / Fold change vs veh, RNF170 / RFU, ZNF28 / Fold change vs veh, ZNF28 / RFU, RNGTT / Fold change vs veh, RNGTT / RFU, OGT / Fold change vs veh, OGT / RFU, BRD1 / Fold change vs veh, BRD1 / RFU, MARS / Fold change vs veh, MARS / RFU, ZNF655 / Fold change vs veh, ZNF655 / RFU, FAHD1 / Fold change vs veh, FAHD1 / RFU, BDP1 / Fold change vs veh, BDP1 / RFU, LRRCC1 / Fold change vs veh, LRRCC1 / RFU, ARID1A / Fold change vs veh, ARID1A / RFU, ZNF146 / Fold change vs veh, ZNF146 / RFU, ZNF330 / Fold change vs veh, ZNF330 / RFU, GPN3 / Fold change vs veh, GPN3 / RFU, C9orf123 / Fold change vs veh, C9orf123 / RFU, N4BP2L2 / Fold change vs veh, N4BP2L2 / RFU, ARFIP1 / Fold change vs veh, ARFIP1 / RFU, FAM179B / Fold change vs veh, FAM179B / RFU, BCL10 / Fold change vs veh, BCL10 / RFU, UHRF1BP1L / Fold change vs veh, UHRF1BP1L / RFU, BET1 / Fold change vs veh, BET1 / RFU, CNOT2 / Fold change vs veh, CNOT2 / RFU, ZNF268 / Fold change vs veh, ZNF268 / Fold change vs veh, ZNF507 / RFU, DGCR2 / Fold change vs veh, DGCR2 / RFU, WDSUB1 / Fold change vs veh, WDSUB1 / Fold change vs veh, HSP90B1 /// MIR3652 / RFU, ADSS / Fold change vs veh, ADSS / RFU, GK / Fold change vs veh, GK / RFU, ZNF148 / Fold change vs veh, ZNF148 / RFU, TAF9 / Fold change vs veh, TAF9 / RFU, SLC1A5 / Fold change vs veh, SLC1A5 / RFU, SLMO2 / Fold change vs veh, SLMO2 / RFU, ABCC4 / Fold change vs veh, ABCC4 / RFU, LOC101060439 /// RAP1B / Fold change vs veh, LOC101060439 /// RAP1B / RFU, RFX7 / Fold change vs veh, RFX7 / RFU, GTPBP10 / Fold change vs veh, GTPBP10 / RFU, CNEP1R1 / Fold change vs veh, CNEP1R1 / RFU, BIVM-ERCC5 /// ERCC5 / Fold change vs veh, BIVM-ERCC5 /// ERCC5 / RFU, ILF3 / Fold change vs veh, ILF3 / RFU 11762660_at / Fold change /veh 11762660_at / RFU VCAN (11757783_s_at) / Fold change /veh VCAN (11757783_s_at) / RFU DDX43 (11728927_at) / Fold change /veh DDX43 (11728927_at) / RFU KRT8 (11758188_x_at) / Fold change /veh KRT8 (11758188_x_at) / RFU NKD1 (11759106_at) / Fold change /veh NKD1 (11759106_at) / RFU SRD5A1 (11742802_a_at) / Fold change /veh SRD5A1 (11742802_a_at) / RFU TPSAB1 /// TPSB2 (11721975_s_at) / Fold change /veh TPSAB1 /// TPSB2 (11721975_s_at) / RFU GSTM3 (11746129_a_at) / Fold change /veh GSTM3 (11746129_a_at) / RFU IL23R (11737362_x_at) / Fold change /veh IL23R (11737362_x_at) / RFU TMEM51 (11727254_a_at) / Fold change /veh TMEM51 (11727254_a_at) / RFU PIWIL2 (11732686_x_at) / Fold change /veh PIWIL2 (11732686_x_at) / RFU ORM1 (11744905_x_at) / Fold change /veh ORM1 (11744905_x_at) / RFU CCDC152 (11743942_at) / Fold change /veh CCDC152 (11743942_at) / RFU ECM1 (11717891_a_at) / Fold change /veh ECM1 (11717891_a_at) / RFU IL23R (11748794_a_at) / Fold change /veh IL23R (11748794_a_at) / RFU TNFAIP8L3 (11732012_x_at) / Fold change /veh TNFAIP8L3 (11732012_x_at) / RFU MBOAT4 (11741988_at) / Fold change /veh MBOAT4 (11741988_at) / RFU 11764193_at / Fold change /veh 11764193_at / RFU TMEM53 (11763286_at) / Fold change /veh TMEM53 (11763286_at) / RFU MAGEB2 (11727129_at) / Fold change /veh MAGEB2 (11727129_at) / RFU TMEM200A (11744735_a_at) / Fold change /veh TMEM200A (11744735_a_at) / RFU CCDC152 (11751479_a_at) / Fold change /veh CCDC152 (11751479_a_at) / RFU FAM211A (11726209_a_at) / Fold change /veh FAM211A (11726209_a_at) / RFU RGS16 (11746705_a_at) / Fold change /veh RGS16 (11746705_a_at) / RFU VCAN (11755009_s_at) / Fold change /veh VCAN (11755009_s_at) / RFU RHOB (11743442_s_at) / Fold change /veh RHOB (11743442_s_at) / RFU RGS16 (11720943_a_at) / Fold change /veh RGS16 (11720943_a_at) / RFU RGS16 (11720944_at) / Fold change /veh RGS16 (11720944_at) / RFU, VPS4B / Fold change vs veh, VPS4B / RFU, CREB1 / Fold change vs veh, CREB1 / RFU, DNAJC13 / Fold change vs veh, DNAJC13 / RFU, GNAQ / Fold change vs veh, GNAQ / RFU, CDK5R1 / Fold change vs veh, CDK5R1 / RFU, ZRANB3 / Fold change vs veh, ZRANB3 / RFU, CUL4A / Fold change vs veh, CUL4A / RFU, CCNY / Fold change vs veh, CCNY / RFU, UFL1 / Fold change vs veh, UFL1 / RFU, COG3 / Fold change vs veh, COG3 / RFU, DIAPH2 / Fold change vs veh, DIAPH2 / RFU, SKA2 / Fold change vs veh, SKA2 / RFU, AFF3 / Fold change vs veh, AFF3 / RFU, LMF1 / Fold change vs veh, LMF1 / RFU, IPO11 / Fold change vs veh, IPO11 / RFU, DFFB / Fold change vs veh, DFFB / RFU, FOXP1 / Fold change vs veh, FOXP1 / RFU, CARD8 / Fold change vs veh, CARD8 / RFU, STRN3 / Fold change vs veh, STRN3 / RFU, ADK / Fold change vs veh, ADK / RFU, RASSF2 / Fold change vs veh, RASSF2 / RFU, WIPF1 / Fold change vs veh, WIPF1 / RFU, LARP1B / Fold change vs veh, LARP1B / RFU, RASA1 / Fold change vs veh, RASA1 / RFU, RB1 / Fold change vs veh, RB1 / RFU, PPFIA1 / Fold change vs veh, PPFIA1 / RFU, MAT2A / Fold change vs veh, MAT2A / RFU, CCT5 / Fold change vs veh, CCT5 / RFU, WDR92 / Fold change vs veh, WDR92 / RFU, CUX1 / Fold change vs veh, CUX1 / RFU, TTC7A / Fold change vs veh, TTC7A / RFU, TMEM135 / Fold change vs veh, TMEM135 / RFU, DEPTOR / Fold change vs veh, DEPTOR / RFU, CPM / Fold change vs veh, CPM / RFU, DNAJB6 / Fold change vs veh, DNAJB6 / RFU, CACNA2D3 / Fold change vs veh, CACNA2D3 / RFU, DTX4 / Fold change vs veh, DTX4 / RFU, TFCP2 / Fold change vs veh, TFCP2 / RFU, GMCL1 /// GMCL1P1 / Fold change vs veh, GMCL1 /// GMCL1P1 / RFU, AEBP2 / Fold change vs veh, AEBP2 / RFU, SNHG1 /// SNORD22 /// SNORD25 /// SNORD26 /// SNORD27 /// SNORD28 /// SNORD29 /// SNORD31 / Fold change vs veh, SNHG1 /// SNORD22 /// SNORD25 /// SNORD26 /// SNORD27 /// SNORD28 /// SNORD29 /// SNORD31 / Fold change (Aza/veh), C12orf56 (ProbeSet 11735607_a_at) / Fold change (ACY-1035/veh), C12orf56 (ProbeSet 11735607_a_at) / Fold change (Aza/veh), FGFR1OP (ProbeSet 11751329_s_at) / Fold change (ACY-1035/veh), FGFR1OP (ProbeSet 11751329_s_at) / Fold change (Aza/veh), VPS36 (ProbeSet 11739960_a_at) / Fold change (ACY-1035/veh), VPS36 (ProbeSet 11739960_a_at) / RFU SYPL1 (11715823_x_at) / Fold change /veh SYPL1 (11715823_x_at) / RFU IGFBP7 (11715501_s_at) / Fold change /veh IGFBP7 (11715501_s_at) / RFU REEP3 (11722064_at) / Fold change /veh REEP3 (11722064_at) / RFU IGLL1 (11728026_x_at) / Fold change /veh IGLL1 (11728026_x_at): dose or concentration left out as unconfirmed
Settings: ProbeSet 11731461_x_at; LIST D

Nc1ccc(-c2cccs2)cc1NC(=O)c1ccc2c(c1)cc(C1CC1)n2CCN1CCOCC1 [ACY-1035]
RFU, CPM: 131.54 RFU
